Target: GI 77862362; decaprenyl diphosphate synthase [Rhodobacter capsulatus] (Rhodobacter capsulatus, UniProt Q07D00)
Assay: product chain-length by TLC with […]IPP
Type: biochemical

GI 77862362; decaprenyl diphosphate synthase [Rhodobacter capsulatus], sequence (Q07D00 1-333): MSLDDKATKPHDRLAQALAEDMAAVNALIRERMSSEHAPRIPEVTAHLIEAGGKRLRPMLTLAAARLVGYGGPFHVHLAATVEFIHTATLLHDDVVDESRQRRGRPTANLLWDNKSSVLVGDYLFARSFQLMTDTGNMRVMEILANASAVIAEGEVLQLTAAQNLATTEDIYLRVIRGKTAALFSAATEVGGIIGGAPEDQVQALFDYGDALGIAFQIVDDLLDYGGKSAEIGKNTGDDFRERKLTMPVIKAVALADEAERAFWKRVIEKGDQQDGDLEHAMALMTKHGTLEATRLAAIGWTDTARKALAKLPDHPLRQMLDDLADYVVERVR

**Q.** How did the “product chain-length by TLC with [14C]IPP” value turn out when C=C(C)CCOP(=O)(O)OP(=O)(O)O [IPP] was run?
**A.** The value was “different ratios of IPP:DMAPP and IPP:FPP”.

Reference: publication PMC3855619 (Biochemistry, 2013)
